Data reported in patent publication US12138398B2, “Methods and devices for providing a stimulus to a subject to induce gamma oscillations” (Massachusetts Institute of Technology, priority 2015, dated 2024).
“And” between values parts separate entries of the source, which are not always exact repeats. Equal values may be shown once. Read-outs that look alike come from different tables or passages of the source.

What was measured:
[1] = tested on: AD patients; settings: cited from earlier work
[2] = tested on: organotypic hippocampal slices prepared from transgenic (Tg) mice overexpressing APP; settings: cited from earlier work
[3] = tested on: Aβ1-40 and Aβ1-42 levels in 5×FAD visual cortex; test: Aβ ELISA of visual cortex after one hour 40-Hz light flicker with picrotoxin pretreatment; format: in vivo, mouse
Text: FIGS. 47A and 47B are bar graphs depicting changes in baseline levels of Aβ1-40 and Aβ1-42, respectively, in 5×FAD visual cortex in dark, light, 40-Hz flicker, 20-Hz flicker, 80-Hz flicker, 40-Hz flicker with picrotoxin (PTX) and Random flicker conditions in accordance with some embodiments (n=12 mice per group for dark; n=6 mice per group for light, 40-Hz flicker, 20-Hz flicker, 80-Hz flicker, and PTX; n=4 mice per group for Random flicker; “n.s.” indicates not significant, one asterisk indicates p<0.05, and two asterisks indicate p<0.01 by one-way ANOVA). FIGS. 47 and 47B show mean and SEM. Circles superimposed on bars in the bar graphs indicate individual data points in each group. Following one hour after light exposure, it was observed that Aβ1-40 levels in visual cortex were reduced by 57.96% and Aβ1-42 levels by 57.97% compared to the dark condition (as measured by Aβ ELISA, see, e.g., FIGS. 47A and 47B, p<0.05 by one-way ANOVA, n=6 mice per group). Compared to light controls, amyloid levels were reduced by 62.47% (Aβ1-40) and 68.55% (Aβ1-42) following one hour of 40-Hz flicker (as measured by Aβ ELISA, see, e.g., FIG. 4′7, p<0.05 by one-way ANOVA, n=6 mice per group). […]
Fifteen minutes prior to the experiment 5×FAD mice were treated with saline (Control) or picrotoxin (0.18 mg/kg). For molecular and biochemical analyses mice were then placed in a dark chamber illuminated by an LED bulb and exposed to one of five stimulation conditions: dark, light, 20-Hz flicker, 40-Hz flicker, or 80-Hz flicker (12.5 ms light on, 12.5 ms light off) for one hour (see, e.g., FIG. 43A). For electrophysiological recordings each animal received dark, light, 40-Hz flicker, or random (light pulses were delivered with a random interval determined by a Poisson process with an average interval of 40 Hz) stimulation conditions interleaved in 10 s blocks during recordings. […]

[4] = 5×FAD visual cortex (VC), 40 Hz flicker one hour + PTX (0.18 mg/kg pretreatment), ELISA dilution 1:2, individual mice

CCN(C)C(=O)Oc1cccc([C@H](C)N(C)C)c1 [rivastigmine]
clinical outcome on cognition ([1]; AD subjects): only mild cognitive benefits

COc1cc2c(cc1OC)C(=O)C(CC1CCN(Cc3ccccc3)CC1)C2 (stereo not drawn) [donepezil]
clinical outcome on cognition ([1]; human, in vivo): only mild cognitive benefits

picrotoxin [PTX]
neuronal activity ([2]; organotypic hippocampal slices, APP Tg mice): increased neuronal activity | effects of 40-Hz flicker on Aβ levels after picrotoxin pretreatment ([3]; 5×FAD mice, picrotoxin 0.18 mg/kg): completely abrogated | Average Aβ1-40 Concentration [3, 4]: 367.2 pg/ml and 431.4 pg/ml and 445.2 pg/ml (2×) and 392.4 pg/ml and 386.7 pg/ml | Aβ1-42 concentration [3, 4]: 396.6 pg/ml and 540.5 pg/ml and 532.7 pg/ml and 705.0 pg/ml and 104.5 pg/ml (2×)

NC1=N[C@H](O)[C@H]2[C@H]3O[C@]4(O)O[C@@H]([C@@H](O)[C@@]2(N1)[C@@H]4O)[C@]3(O)CO [tetrodotoxin]
Aβ levels [2]: decreased | neuronal activity [2]: decreased

CC(C)[C@H](O)C(=O)N[C@@H](C)C(=O)N[C@@H]1C(=O)N(C)CCc2ccccc21 [semagacestat]
clinical outcome on cognition ([1]; AD subjects): worsening of cognitive deficits
